The values below come from publication PMC3667671 (Clinical pharmacology and therapeutics, 2012).

The subject of one series is serum cholesterol. The following applies: human, in vivo; cited from earlier work.
A short description of series [1]: Estimated luminal concentration of efavirenz after oral administration. Set-up: species or system human. The note with it: after oral administration of 400 mg, dose/250 mL.
The conditions of series [2]: rapidly absorbed from the upper intestine; cited from earlier work.
Another series deals with T1, OATP1B1 (Homo sapiens, UniProt Q9Y6L6).
T1 sequence (Q9Y6L6 1-691): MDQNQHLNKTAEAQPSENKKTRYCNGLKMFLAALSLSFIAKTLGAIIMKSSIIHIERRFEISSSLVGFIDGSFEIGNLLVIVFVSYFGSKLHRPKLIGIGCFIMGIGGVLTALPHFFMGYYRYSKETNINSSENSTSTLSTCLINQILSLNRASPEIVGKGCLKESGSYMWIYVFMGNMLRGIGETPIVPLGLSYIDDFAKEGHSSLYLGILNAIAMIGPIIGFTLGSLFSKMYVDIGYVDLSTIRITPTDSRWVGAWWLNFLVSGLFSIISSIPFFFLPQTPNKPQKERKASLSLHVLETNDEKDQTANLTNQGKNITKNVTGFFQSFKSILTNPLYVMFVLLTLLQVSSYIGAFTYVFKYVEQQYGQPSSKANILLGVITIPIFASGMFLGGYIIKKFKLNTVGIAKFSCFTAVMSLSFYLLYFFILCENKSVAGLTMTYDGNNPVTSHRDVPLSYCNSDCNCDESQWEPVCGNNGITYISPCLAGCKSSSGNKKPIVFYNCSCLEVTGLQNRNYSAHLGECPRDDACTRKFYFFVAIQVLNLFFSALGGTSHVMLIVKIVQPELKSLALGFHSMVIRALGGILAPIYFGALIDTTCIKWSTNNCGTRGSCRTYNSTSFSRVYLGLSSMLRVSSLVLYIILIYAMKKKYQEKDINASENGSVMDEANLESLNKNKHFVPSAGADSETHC
The series is classed as cell-based. The following applies: OATP1B1-transfected HEK293 cells, efavirenz 1–1,000 μmol/l.

Another series deals with ABCB1 (Homo sapiens, UniProt P08183). Description: Calcein AM accumulation assay in ABCB1-transfected MDCKII cells. The class given is cell-based.
Sequence of ABCB1 (P08183 whole entry): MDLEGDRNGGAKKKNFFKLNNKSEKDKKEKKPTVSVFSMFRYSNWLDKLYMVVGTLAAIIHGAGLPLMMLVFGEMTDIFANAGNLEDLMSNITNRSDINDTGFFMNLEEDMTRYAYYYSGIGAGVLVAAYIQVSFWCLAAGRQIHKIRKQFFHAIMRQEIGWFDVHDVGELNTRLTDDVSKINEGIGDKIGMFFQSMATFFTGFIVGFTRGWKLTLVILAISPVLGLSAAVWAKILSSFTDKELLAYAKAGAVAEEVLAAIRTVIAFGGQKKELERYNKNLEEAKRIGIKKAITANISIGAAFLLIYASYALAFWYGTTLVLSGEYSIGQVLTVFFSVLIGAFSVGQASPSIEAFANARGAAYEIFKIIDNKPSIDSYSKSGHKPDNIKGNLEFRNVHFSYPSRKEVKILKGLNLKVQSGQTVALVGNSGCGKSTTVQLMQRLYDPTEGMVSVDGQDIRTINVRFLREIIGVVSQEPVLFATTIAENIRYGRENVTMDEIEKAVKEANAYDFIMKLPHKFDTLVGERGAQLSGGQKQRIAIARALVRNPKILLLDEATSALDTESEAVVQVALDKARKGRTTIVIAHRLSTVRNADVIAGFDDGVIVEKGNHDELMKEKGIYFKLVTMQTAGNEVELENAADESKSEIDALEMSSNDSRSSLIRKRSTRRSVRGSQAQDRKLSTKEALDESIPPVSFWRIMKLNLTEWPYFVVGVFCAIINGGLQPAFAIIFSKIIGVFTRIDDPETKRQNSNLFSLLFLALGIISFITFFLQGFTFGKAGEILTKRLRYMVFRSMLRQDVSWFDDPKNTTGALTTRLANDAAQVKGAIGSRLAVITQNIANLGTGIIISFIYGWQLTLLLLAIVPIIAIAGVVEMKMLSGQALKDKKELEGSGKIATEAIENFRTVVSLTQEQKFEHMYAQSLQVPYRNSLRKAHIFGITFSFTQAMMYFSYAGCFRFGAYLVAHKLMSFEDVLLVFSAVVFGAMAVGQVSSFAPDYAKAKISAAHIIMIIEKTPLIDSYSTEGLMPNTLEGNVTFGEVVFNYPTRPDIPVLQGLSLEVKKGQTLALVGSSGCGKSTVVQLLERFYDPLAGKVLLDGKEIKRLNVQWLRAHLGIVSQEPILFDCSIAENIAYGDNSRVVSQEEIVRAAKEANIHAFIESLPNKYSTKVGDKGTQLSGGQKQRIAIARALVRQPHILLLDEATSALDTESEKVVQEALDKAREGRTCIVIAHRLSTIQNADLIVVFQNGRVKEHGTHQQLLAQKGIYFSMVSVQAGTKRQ
The format of series [3] is in vivo, human.
For a further series, the target named is ABCC2 (Homo sapiens, UniProt Q92887). Description: Uptake of estradiol-17β-glucuronide into ABCC2-containing inside-out vesicles. The class given is biochemical.
Sequence of ABCC2 (Q92887 whole entry): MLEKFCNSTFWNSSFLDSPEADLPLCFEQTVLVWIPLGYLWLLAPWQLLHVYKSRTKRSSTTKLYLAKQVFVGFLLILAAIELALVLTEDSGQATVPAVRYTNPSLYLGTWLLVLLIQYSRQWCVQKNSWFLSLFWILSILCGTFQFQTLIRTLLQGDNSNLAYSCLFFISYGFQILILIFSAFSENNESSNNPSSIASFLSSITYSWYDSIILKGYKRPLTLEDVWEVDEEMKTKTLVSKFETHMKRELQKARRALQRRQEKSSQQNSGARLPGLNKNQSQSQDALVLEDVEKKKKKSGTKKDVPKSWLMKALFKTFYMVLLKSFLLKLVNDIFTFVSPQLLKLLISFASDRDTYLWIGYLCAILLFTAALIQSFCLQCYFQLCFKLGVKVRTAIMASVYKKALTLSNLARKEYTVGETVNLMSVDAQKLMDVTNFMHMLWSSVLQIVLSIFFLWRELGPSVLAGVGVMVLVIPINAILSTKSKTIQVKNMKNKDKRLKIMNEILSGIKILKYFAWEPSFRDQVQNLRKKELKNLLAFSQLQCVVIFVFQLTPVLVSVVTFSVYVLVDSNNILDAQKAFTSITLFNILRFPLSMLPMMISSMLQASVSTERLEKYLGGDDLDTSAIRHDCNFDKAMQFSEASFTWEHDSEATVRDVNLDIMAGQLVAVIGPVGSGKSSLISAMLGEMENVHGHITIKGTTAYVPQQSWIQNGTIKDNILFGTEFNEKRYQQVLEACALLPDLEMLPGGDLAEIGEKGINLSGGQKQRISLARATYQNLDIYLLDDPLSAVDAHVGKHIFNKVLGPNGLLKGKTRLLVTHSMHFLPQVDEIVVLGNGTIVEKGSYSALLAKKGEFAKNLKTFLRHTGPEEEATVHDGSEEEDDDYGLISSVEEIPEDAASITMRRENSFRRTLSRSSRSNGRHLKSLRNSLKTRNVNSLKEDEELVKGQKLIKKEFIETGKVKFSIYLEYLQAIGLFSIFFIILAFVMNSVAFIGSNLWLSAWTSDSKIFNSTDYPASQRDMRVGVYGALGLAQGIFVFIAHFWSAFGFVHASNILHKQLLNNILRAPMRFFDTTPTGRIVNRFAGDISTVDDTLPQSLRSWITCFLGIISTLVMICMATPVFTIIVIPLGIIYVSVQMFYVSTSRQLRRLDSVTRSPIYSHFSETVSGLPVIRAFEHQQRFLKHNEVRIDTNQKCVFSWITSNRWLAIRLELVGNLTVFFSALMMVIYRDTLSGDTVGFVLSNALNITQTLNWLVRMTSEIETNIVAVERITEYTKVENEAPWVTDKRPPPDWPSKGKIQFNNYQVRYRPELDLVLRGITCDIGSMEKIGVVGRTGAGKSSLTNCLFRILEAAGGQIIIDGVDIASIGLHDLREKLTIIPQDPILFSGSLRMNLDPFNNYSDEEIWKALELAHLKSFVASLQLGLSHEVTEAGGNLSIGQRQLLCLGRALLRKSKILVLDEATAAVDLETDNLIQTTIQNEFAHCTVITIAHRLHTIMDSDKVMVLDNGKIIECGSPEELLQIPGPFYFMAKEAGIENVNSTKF
Series [4] is classed as in vivo, human. The note with it: for AUC(0-t) / Cmax / AUC0–6 h / AUC0–24 h: serum; for AUC(0-t) / Cmax / CLR (renal clearance) / AUC0–6 h / AUC0–24 h: mean ± SD.
The test system of another series is serum sterols. Briefly: Serum sterol concentrations. The series is classed as in vivo, human.
The mark [5] stands for this setting: 400 mg efavirenz single dose, second value of the pair (taken as with ezetimibe).
[6] abbreviates: ezetimibe + efavirenz multiple dose vs ezetimibe alone.
[7] abbreviates: ezetimibe + efavirenz single dose vs ezetimibe alone.
[8] abbreviates: chronic administration of 10 mg ezetimibe, 12 healthy subjects.
The mark [9] stands for this setting: steady state 10 mg ezetimibe + 400 mg efavirenz multiple dose.
Setting [10] is: steady state 10 mg ezetimibe + 400 mg efavirenz single dose.
Where [11] appears, read: steady state, 10 mg ezetimibe alone.

Where “and” joins values, the source holds several entries; their conditions need not be identical. Identical values can stand only once. Like-named read-outs stand apart in the source and are kept apart here.

The term Tmax denotes the time at which the peak concentration occurs. As a reminder, the AUC(0-inf) is the area under the concentration-time curve extrapolated to infinity. Lower therefore signals less exposure. A word on the IC50: it is the point on the concentration scale where inhibition reaches its midpoint. Low values mean higher potency, high ones lower potency. For `O=C1Nc2ccc(Cl)cc2[C@@](C#CC2CC2)(C(F)(F)F)O1` [Efavirenz, efavirenz], the “HIV-infected patients with increased serum cholesterol levels” value in the series with serum cholesterol is given as roughly 50%. Also, the estimated luminal concentration in series [1] was ~ 5 mmol/l and 5 mmol/l. In addition, the time to peak (Tmax) in series [2] was 2 to 3 h. The “influence on OATP1B1-mediated uptake of bromosulfophthalein” value at OATP1B1 is “no influence”. Besides, the “concentration inhibiting ABCB1 activity to the same extent as PSC833 (10 μmol/l)” value on ABCB1 is 316 µM. The compound also showed a cumulative renal excretion in [3] (400 mg efavirenz single dose, first value of the pair (taken as alone)) of 83.4 ± 26.9 µg. In series [3] (setting [5]), this compound returned a cumulative renal excretion of 88.4 ± 18.8 µg and a renal clearance of 0.06 ± 0.03 mL/min. In [3] (human, serum, oral, 400 mg), this compound showed an AUC(0-inf) of 27000 ± 12200 ng·h/mL. For the same compound, the CL renal in series [3] (human, urine and plasma, oral, 400 mg) worked out at 0.06 ± 0.03 mL/min. Also, the IC50 on ABCC2 came to 60.3 µM.

Usually AUC(0-t) stands for the area under the concentration-time curve up to a stated or last time point. Read a high AUC(0-t) as more exposure. As usually defined, the Cmax is the highest concentration seen after dosing. Take `O=C1[C@H](CC[C@H](O)c2ccc(F)cc2)[C@@H](c2ccc(O)cc2)N1c1ccc(F)cc1` [Ezetimibe, ezetimibe]: in [4] (setting [6]), the “AUC0–6 h Ratio (90% CI)” value was 1.052 (0.880, 1.256); the “AUC0–24 h Ratio (90% CI)” value is given as 0.975 (0.850, 1.118); the “Cmax Ratio (90% CI)” value was 0.951 (0.730, 1.240). Moreover, in [4] (setting [7]), the “AUC0–6 h Ratio (90% CI)” value is given as 1.346 (1.201, 1.508); the “AUC0–24 h Ratio (90% CI)” value is on record as 1.146 (1.034, 1.270); the “Cmax Ratio (90% CI)” value is recorded as 1.194 (1.031, 1.382). Also, the AUC(0-t) in [4] (human, oral, 10 mg, AUC0–6 h, steady state, 10 mg ezetimibe alone) turned out to be 13.6 ± 5.5 ng·h/mL. This compound also showed an exposure AUC(0-t) in series [4] (human, oral, 10 mg, AUC0–24 h, steady state, 10 mg ezetimibe alone, 12 healthy subjects) of 51.9 ± 21.7 ng·h/mL. In addition, the Cmax in series [4] (human, oral, 10 mg, Cmax, steady state, 10 mg ezetimibe alone) worked out at 4.82 ± 2.74 ng/mL. Further, the “higher AUC0–6 h” value in series [4] (with single-dose efavirenz vs ezetimibe alone, P = 0.005) came to 1.4 fold. In [4] (with single-dose efavirenz vs ezetimibe alone, P = 0.049), the “higher maximum plasma concentration (Cmax)” value turned out to be 1.2 fold. The “lathosterol/cholesterol ratio (marker for endogenous cholesterol synthesis)” value in the series on serum sterols (after treatment with ezetimibe) is reported as “significantly increased”. Moreover, in the series with serum sterols (setting [8]), the “reduction of serum concentration of campesterol” value was ~ 40%, the “reduction of serum concentration of sitosterol” value is ~ 40% and the “reduction of total serum cholesterol” value is 10–15%.

`O=C(O)[C@H]1O[C@@H](Oc2ccc([C@@H]3[C@@H](CC[C@H](O)c4ccc(F)cc4)C(=O)N3c3ccc(F)cc3)cc2)[C@H](O)[C@@H](O)[C@@H]1O` [Ezetimibe-glucuronide, ezetimibe-glucuronide]: the “CLR (renal clearance)” value in [4] (10 mg ezetimibe + 400 mg efavirenz multiple dose) was found to be 21.7 ± 5.91 mL/min; in series [4] (10 mg ezetimibe + 400 mg efavirenz single dose), 23.3 ± 7.61 mL/min; in [4] (10 mg ezetimibe alone, steady state) it was 24.7 ± 8.77 mL/min. Besides, the decrease of exposure in series [4] (acute and chronic comedication with efavirenz) is given as 12–30%. Further, the “AUC0–6 h Ratio (90% CI)” value in [4] (setting [6]) is 0.691 (0.592, 0.806); in series [4] (setting [7]), 0.872 (0.774, 0.982). Besides, the “AUC0–24 h Ratio (90% CI)” value was 0.700 (0.608, 0.806) in series [4] (setting [6]) and 0.885 (0.809, 0.968) in series [4] (setting [7]). Moreover, the “Cmax Ratio (90% CI)” value in series [4] (setting [6]) is 0.606 (0.469, 0.783); in series [4] (setting [7]), 0.776 (0.625, 0.963). Further, the “reduction of urinary excretion” value in [4] (multiple doses of efavirenz, unchanged renal clearance, P = 0.003) amounted to 35%. Further, the “diminished serum AUC” value in series [4] (pretreatment with multiple doses of efavirenz, P = 0.005) is on record as roughly 30%. In addition, in series [4] (pretreatment with multiple doses of efavirenz, P = 0.012), the “diminished serum Cmax” value is on record as “about 43%”. The “AUC0–6 h” value in [4] (setting [9]) stood at 141 ± 58 ng·h/mL; in series [4] (setting [10]) it was 182 ± 87 ng·h/mL; in [4] (setting [11]) it was 205 ± 90 ng·h/mL. The “AUC0–24 h” value stood at 325 ± 152 ng·h/mL in series [4] (setting [9]); 411 ± 195 ng·h/mL in [4] (setting [10]); 466 ± 223 ng·h/mL in series [4] (steady state, 10 mg ezetimibe alone, 12 healthy subjects). Moreover, the results for the highest concentration (Cmax) in [4] (setting [9]), in series [4] (setting [10]) and in series [4] (setting [11]) were 45.3 ± 14.6 ng/mL, 60.9 ± 29.5 ng/mL and 78.9 ± 43.1 ng/mL, respectively.
